Assay results as given in patent US7737144B2, “Pyrimido[5,4-e][1,2,4]triazine-5-7-diones, processes for preparing them and their use” (Sanofi-Aventis Deutschland GmbH, priority 2003, dated 2010).
pIC50: −log10 of the molar value.

Biological target: T1, recombinant human PTP1B (Homo sapiens, UniProt P18031)
T1 construct: without the carboxy terminal hydrophobic region (corresponding to 1-299 aa); FLAG (N); made in house; host or cells: Sf9 insect cells (baculovirus, Bac-to-Bac)
T1 sequence (P18031 1-299): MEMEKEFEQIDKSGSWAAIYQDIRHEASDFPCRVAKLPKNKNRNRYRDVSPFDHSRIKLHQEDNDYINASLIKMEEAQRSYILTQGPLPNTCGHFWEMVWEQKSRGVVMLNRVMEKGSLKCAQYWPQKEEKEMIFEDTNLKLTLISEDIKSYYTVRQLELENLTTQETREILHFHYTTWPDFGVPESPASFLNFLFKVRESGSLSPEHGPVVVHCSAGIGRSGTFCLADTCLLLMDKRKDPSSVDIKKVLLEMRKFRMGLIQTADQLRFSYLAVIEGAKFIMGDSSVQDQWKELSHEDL
Test: Inhibiting phosphotyrosine phosphatase 1B (PTP1B), in-vitro phosphatase assay
Assay type: biochemical
Conditions: Table 2 Biological activity; substrate variant (phosphopeptide, p-nitrophenyl phosphate or DIFMUP) not stated
Excerpt: Inhibiting Phosphotyrosine Phosphatase 1B (PTP1B)
The setting up and implementation of an in-vitro assay for detecting a phosphatase-inhibiting effect of the compounds according to the invention are described below. The isolation of the enzyme preparation and the implementation of the assay are described. […]
This assay is based on releasing phosphate from a consensus substrate peptide which is detected in the nanomolar concentration range using the malachite green/ammonium molybdate method (Lanzetta, P. A., Alvarez, L. J., Reinach, P. S., Candia, O. A. Anal Biochem. 100: 95-97, 1979) as adapted for the microtiter plate format. […] After incubating at 22° C. for 30 min, in order to develop the color, the absorption at 650 nm was determined using a microtiter plate reader (Molecular Devices). Samples and blanks were measured in triplicate. The PTP1B activity was calculated as nanomoles of phosphate released per min and mg of protein using potassium phosphate as the standard. The inhibition of the recombinant hPTP1B by test substances was calculated as percentages of the phosphatase control. […]

pIC50: 5.28
Compound: CCCCn1nc(-c2cccc(Oc3ccccc3)c2)nc2c(=O)n(C)c(=O)nc1-2 [compound 5]
